In patent US9321773B2, “Compounds” (Respivert Ltd, priority 2009, dated 2016):

Columns and labels:
[1] = test system: H2O2 induced pAkt in D-U937 cells; experiment: PI3Kδ Cell Based Assay (H2O2 induced pAkt); conditions: Homo sapiens, dU937; activity range; D-U937 cells; read-out: Cellular Activity IC50 values (H2O2 induced pAkt D-U937 Cells)
Procedure: As a means of assessing PI3K 6 activation in response to stimuli, the phosphorylation status of the protein, Akt, a downstream product of PI3K6, signaling was determined. Human monocytic cells (U937 cells), were differentiated to macrophage-type cells by incubation with phorbol myristate acetate (PMA; 100 ng/mL) for 48 to 72 hr. […] The cells were washed with buffer (PBS containing 0.1% Triton X-100) and were incubated with blocking solution (1% BSA in PBS) for 1 hr and were then re-washed with buffer and incubated overnight with either anti-pAkt antibody or anti-pan-Akt antibody (both from Cell Signaling Technology). […] This reaction was stopped by addition of 100 μL of 1N H2SO4 solution. […] The ratio of pAkt signal to total Akt signal was used to quantitate the extent of PI3K δ activation. […] The IC50 values were calculated from the concentration-response curves generated by the serial dilutions of the test compounds (Table 3 and Table 4).

[2] = test system: PMA-differentiated U937 cells; experiment: MTT Assay (cell viability); format: cell-based, Human; conditions: percentage loss of cell viability; for Cell Viability MTT Assay in D-U937 cells at 4 hr: 4 hr in 5% FCS; for Cell Viability MTT Assay in D-U937 cells at 24 hr: 24 hr in 10% FCS
Procedure: PMA-differentiated U937 cells were pre-incubated with compound for 4 hr in 5% FCS or 10% FCS for 24 hr. The supernatant was replaced with 200 μL of new media and 10 μL of MTT stock solution (5 mg/ml) added to each well. After 1 hr incubation, the media were removed, 200 μL of DMSO added to each well and the plates were shaken lightly for 1 hr prior to reading the absorbance at 550 nm. The percentage loss of cell viability was calculated for each well relative to vehicle (0.5% DMSO)-treatment (Table 3).

[3] = target: recombinant PI3 kinase α (Homo sapiens (Human), UniProt P42336); experiment: Enzyme Inhibition Assay (HTRF PI3K enzyme assay, TR-FRET); format: biochemical; conditions: activity range; read-out: PI3 Kinase Inhibition IC50 values at stated Isozyme α
Text: (§1) PI3 kinases catalyse the phosphorylation of phosphatidylinositol 4,5-biphosphate (PIP2) to phosphatidylinositol 3,4,5-triphosphate (PIP3) in the presence of ATP and Mg^2+ ions. The PIP3 product can be detected by displacement of biotin-PIP3 from energy transfer complexes consisting of europium labelled anti-GST monoclonal antibody, a GST-tagged Pleckstrin homology (PH) domain, biotinylated PIP3 and streptavidin-allophycocyanin (APC) by the time-resolved fluorescence resonance energy transfer (TR-FRET) (HTRF® PI3K enzyme assay, Millipore). […] The PIP3 product formed by PI3K activity displaces biotin-PIP3 from the complex and results in a loss of energy transfer (decreasing signal).
(§2) The compound to be tested was added, at the desired final concentrations, to a mixture of PIP2 substrate and recombinant PI3 kinase α, δ or γ enzymes (Millipore), and the mixture incubated for 2 hr at RT. […] A stopping solution containing biotinylated PIP3 and the detection mix containing the GST tagged GRP1 pleckstrin homology (PH) domain and fluorophores were then added and the mixture was incubated at RT for 15-18 hr, prior to detection in a fluorescence microplate reader (Varioskan® Flash, ThermoFisher Scientific).

[4] = target: recombinant PI3 kinase δ (Homo sapiens (Human), UniProt O00329); experiment: as above; format: biochemical; conditions: activity range; read-out: PI3 Kinase Inhibition IC50 values at stated Isozyme δ
Text: as §1, §2

[5] = target: recombinant PI3 kinase γ (Homo sapiens (Human), UniProt P48736); experiment: as above; format: biochemical; conditions: activity range; read-out: PI3 Kinase Inhibition IC50 values at stated Isozyme γ
Text: as §1, §2

recombinant PI3 kinase δ, sequence (O00329 whole entry): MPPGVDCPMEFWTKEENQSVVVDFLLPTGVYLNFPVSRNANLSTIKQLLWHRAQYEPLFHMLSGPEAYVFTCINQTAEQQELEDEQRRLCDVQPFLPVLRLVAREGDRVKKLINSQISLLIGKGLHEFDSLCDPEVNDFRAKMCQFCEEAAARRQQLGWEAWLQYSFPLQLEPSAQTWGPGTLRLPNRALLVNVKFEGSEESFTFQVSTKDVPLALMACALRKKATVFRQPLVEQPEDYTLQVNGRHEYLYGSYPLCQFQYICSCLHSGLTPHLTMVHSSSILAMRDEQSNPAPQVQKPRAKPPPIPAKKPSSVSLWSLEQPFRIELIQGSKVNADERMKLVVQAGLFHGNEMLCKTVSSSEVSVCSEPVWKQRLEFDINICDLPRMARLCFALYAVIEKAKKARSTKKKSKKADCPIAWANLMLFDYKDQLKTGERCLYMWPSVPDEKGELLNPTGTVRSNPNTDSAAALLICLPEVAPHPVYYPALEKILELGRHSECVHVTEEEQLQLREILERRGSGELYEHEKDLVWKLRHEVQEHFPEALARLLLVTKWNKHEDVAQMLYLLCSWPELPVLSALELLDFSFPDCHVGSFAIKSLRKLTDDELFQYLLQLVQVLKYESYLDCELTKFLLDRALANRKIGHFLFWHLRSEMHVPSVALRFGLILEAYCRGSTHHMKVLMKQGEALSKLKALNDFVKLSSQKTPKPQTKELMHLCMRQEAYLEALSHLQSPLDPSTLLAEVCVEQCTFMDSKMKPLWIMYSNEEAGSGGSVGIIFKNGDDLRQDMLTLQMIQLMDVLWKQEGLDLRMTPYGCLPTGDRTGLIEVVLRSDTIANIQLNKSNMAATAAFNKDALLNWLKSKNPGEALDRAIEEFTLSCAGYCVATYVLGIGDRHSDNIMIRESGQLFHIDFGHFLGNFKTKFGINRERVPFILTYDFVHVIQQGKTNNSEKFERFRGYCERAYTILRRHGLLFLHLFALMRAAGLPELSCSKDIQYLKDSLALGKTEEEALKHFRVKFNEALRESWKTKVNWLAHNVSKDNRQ
recombinant PI3 kinase δ, sequence (P27986 whole entry partner): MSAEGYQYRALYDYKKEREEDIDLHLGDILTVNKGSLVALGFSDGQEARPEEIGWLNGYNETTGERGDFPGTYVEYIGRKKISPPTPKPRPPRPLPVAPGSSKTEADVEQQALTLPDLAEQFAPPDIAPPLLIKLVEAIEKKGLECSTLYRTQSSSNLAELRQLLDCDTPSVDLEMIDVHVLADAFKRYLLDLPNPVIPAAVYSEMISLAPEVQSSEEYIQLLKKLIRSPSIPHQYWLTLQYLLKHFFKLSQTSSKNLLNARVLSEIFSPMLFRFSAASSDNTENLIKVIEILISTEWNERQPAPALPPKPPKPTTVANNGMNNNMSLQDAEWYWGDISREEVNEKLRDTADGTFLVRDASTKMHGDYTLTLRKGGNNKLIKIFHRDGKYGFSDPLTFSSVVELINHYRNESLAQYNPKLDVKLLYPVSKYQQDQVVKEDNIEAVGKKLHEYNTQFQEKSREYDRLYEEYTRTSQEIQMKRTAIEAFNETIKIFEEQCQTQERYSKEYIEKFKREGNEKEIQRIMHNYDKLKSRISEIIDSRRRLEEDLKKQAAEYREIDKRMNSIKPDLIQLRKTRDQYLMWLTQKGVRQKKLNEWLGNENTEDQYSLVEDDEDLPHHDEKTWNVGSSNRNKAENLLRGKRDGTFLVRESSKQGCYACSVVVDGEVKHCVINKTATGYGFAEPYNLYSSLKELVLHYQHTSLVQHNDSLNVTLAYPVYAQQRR
recombinant PI3 kinase γ, sequence (P48736 whole entry): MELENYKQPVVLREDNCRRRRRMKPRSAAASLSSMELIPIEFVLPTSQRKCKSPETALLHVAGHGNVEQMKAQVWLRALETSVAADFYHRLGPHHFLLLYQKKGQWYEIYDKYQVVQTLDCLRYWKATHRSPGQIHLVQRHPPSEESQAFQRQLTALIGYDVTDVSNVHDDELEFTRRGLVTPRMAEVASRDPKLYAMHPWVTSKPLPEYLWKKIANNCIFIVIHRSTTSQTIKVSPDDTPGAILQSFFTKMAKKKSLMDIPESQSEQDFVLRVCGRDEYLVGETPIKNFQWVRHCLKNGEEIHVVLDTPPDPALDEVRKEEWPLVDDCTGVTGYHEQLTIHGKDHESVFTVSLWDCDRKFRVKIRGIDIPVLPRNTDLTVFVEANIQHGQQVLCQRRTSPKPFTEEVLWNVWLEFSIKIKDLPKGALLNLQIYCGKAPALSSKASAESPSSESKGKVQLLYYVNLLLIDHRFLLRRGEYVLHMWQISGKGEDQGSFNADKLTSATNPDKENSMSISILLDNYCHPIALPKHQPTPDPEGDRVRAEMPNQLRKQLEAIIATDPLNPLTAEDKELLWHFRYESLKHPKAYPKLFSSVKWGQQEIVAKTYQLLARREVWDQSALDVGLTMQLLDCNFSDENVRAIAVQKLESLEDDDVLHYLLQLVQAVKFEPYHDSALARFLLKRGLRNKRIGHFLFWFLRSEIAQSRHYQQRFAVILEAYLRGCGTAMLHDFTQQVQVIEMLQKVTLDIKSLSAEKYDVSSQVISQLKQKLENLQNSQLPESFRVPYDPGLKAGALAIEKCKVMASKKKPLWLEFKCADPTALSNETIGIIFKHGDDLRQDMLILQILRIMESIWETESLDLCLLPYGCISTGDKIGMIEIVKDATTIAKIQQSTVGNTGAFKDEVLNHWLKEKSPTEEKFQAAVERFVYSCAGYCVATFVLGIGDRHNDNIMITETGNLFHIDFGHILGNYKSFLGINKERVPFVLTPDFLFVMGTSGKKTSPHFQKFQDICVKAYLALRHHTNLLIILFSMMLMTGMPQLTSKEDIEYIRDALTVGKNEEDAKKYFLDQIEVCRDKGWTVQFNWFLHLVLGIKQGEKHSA
recombinant PI3 kinase α, sequence (P42336 whole entry): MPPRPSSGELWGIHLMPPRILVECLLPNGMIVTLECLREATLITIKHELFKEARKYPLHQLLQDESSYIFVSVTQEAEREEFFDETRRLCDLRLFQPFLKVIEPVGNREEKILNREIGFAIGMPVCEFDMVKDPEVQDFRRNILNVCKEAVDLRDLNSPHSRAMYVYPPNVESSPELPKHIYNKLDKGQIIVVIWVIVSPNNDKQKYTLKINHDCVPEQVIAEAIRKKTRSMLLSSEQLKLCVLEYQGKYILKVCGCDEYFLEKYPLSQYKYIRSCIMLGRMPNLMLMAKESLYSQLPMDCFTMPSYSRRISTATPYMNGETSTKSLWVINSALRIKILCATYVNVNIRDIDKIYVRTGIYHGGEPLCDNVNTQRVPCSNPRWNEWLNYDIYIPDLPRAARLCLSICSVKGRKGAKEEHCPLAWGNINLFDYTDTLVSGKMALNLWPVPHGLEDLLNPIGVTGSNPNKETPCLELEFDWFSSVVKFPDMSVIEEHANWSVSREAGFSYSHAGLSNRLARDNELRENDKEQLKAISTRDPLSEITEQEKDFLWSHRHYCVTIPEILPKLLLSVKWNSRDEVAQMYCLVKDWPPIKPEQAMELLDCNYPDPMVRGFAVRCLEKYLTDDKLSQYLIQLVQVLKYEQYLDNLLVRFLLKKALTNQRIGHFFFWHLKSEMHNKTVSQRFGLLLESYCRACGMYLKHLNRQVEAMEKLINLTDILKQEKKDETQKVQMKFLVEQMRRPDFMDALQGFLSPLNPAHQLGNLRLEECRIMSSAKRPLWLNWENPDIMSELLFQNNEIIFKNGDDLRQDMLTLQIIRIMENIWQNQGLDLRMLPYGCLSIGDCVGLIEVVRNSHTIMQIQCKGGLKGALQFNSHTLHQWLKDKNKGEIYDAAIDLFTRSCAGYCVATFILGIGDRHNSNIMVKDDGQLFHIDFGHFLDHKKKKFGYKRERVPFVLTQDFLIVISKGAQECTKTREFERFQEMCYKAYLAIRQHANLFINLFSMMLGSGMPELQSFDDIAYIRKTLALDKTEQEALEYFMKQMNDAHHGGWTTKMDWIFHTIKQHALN
recombinant PI3 kinase α, sequence (P27986 whole entry partner): as the sequence (P27986 whole entry partner) above

SMILES | IC50 [1] [µM] | Cell Viability MTT Assay in D-U937 cells at 4 hr [2] | Cell Viability MTT Assay in D-U937 cells at 24 hr [2] | IC50 [3] [µM] | IC50 [4] [µM] | IC50 [5] [µM]
CN1CCCN(C(=O)CCCC#Cc2cccc3nc(Cn4nc(-c5ccc(O)cc5)c5c(N)ncnc54)n(Cc4ccccc4Cl)c(=O)c23)CC1 [Example 93, 2-((4-Amino-3-(4-hydroxyphenyl)-1H-pyrazolo[3,4-d]pyrimidin-1-yl)methyl)-3-(2-chlorobenzyl)-5-(6-(4-methyl-1,4-diazepan-1-yl)-6-oxohex-1-ynyl)quinazolin-4(3H)-one] | < 0.01 | − (− <30%) | − (− <30%) | 0.05 to 1 | < 0.05 | < 0.05
COCCOCCOCC#Cc1cccc2nc(Cn3nc(-c4cccc(O)c4)c4c(N)ncnc43)n(Cc3ccccc3Cl)c(=O)c12 [Example 2, 2-((4-Amino-3-(3-hydroxyphenyl)-1H-pyrazolo[3,4-d]pyrimidin-1-yl)methyl)-3-(2-chlorobenzyl)-5-(3-(2-(2-methoxyethoxy)ethoxy)prop-1-yn-1-yl)quinazolin-4(3H)-one] | < 0.01 | − (− <30%) | − (− <30%) | > 1 | – | –
Nc1ncnc2c1c(-c1ccc(O)cc1)nn2Cc1nc2cccc(C#CCCCC(=O)NC3CCOCC3)c2c(=O)n1Cc1ccccc1Cl [Example 75, 6-(2-((4-Amino-3-(4-hydroxyphenyl)-1H-pyrazolo[3,4-d]pyrimidin-1-yl)methyl)-3-(2-chlorobenzyl)-4-oxo-3,4-dihydroquinazolin-5-yl)-N-(tetrahydro-2H-pyran-4-yl) hex-5-ynamide] | < 0.01 | − (− <30%) | − (− <30%) | 0.05 to 1 | < 0.05 | < 0.05
COc1cc(Cn2c(Cn3nc(-c4ccc(O)cc4)c4c(N)ncnc43)nc3cccc(C#CCCCC(=O)N4CCOCC4)c3c2=O)cc(C(F)(F)F)c1 [Example 62, 2-((4-Amino-3-(4-hydroxyphenyl)-1H-pyrazolo[3,4-d]pyrimidin-1-yl)methyl)-3-(3-methoxy-5-(trifluoromethyl)benzyl)-5-(6-morpholino-6-oxohex-1-yn-1-yl)quinazolin-4(3H)-one] | < 0.01 | − (− <30%) | − (− <30%) | 0.05 to 1 | < 0.05 | < 0.05
N#Cc1cccc(Cn2c(Cn3nc(-c4cccc(O)c4)c4c(N)ncnc43)nc3cccc(C#CCOCCOCCO)c3c2=O)c1 [Example 6, 3-((2-((4-Amino-3-(3-hydroxyphenyl)-1H-pyrazolo[3,4-d]pyrimidin-1-yl)methyl)-5-(3-(2-(2-hydroxyethoxy)ethoxy)prop-1-yn-1-yl)-4-oxoquinazolin-3(4H)-yl)methyl)benzonitrile] | < 0.01 | − (− <30%) | − (− <30%) | 0.05 to 1 | < 0.05 | 0.05 to 1
CN(C)C1CCN(C(=O)CCCC#Cc2cccc3nc(Cn4nc(-c5cccc(O)c5)c5c(N)ncnc54)n(Cc4ccccc4Cl)c(=O)c23)C1 (stereo not shown) [Example 92, 2-((4-Amino-3-(3-hydroxyphenyl)-1H-pyrazolo[3,4-d]pyrimidin-1-yl)methyl)-3-(2-chlorobenzyl)-5-(6-(3-(dimethylamino)pyrrolidin-1-yl)-6-oxohex-1-ynyl) quinazolin-4(3H)-one] | 0.01 to 1 | − (− <30%) | − (− <30%) | – | < 0.05 | –
CC(C)NC(=O)CCCC#Cc1cccc2nc(Cn3nc(-c4cccc(O)c4)c4c(N)ncnc43)n(Cc3ccccc3Cl)c(=O)c12 [Example 87, 6-(2-((4-Amino-3-(3-hydroxyphenyl)-1H-pyrazolo[3,4-d]pyrimidin-1-yl)methyl)-3-(2-chlorobenzyl)-4-oxo-3,4-dihydroquinazolin-5-yl)-N-isopropylhex-5-ynamide] | < 0.01 | − (− <30%) | − (− <30%) | – | < 0.05 | –
Cc1cnc(Cn2c(Cn3nc(-c4cccc(O)c4)c4c(N)ncnc43)nc3cccc(C#CCCCC(=O)N4CCOCC4)c3c2=O)cn1 [Example 57] | < 0.01 | − (− <30%) | − (− <30%) | – | – | –
CN1CCCN(C(=O)CCCC#Cc2cccc3nc(Cn4nc(-c5cccc(O)c5)c5c(N)ncnc54)n(Cc4ccccc4Cl)c(=O)c23)CC1 [Example 94, 2-((4-Amino-3-(3-hydroxyphenyl)-1H-pyrazolo[3,4-d]pyrimidin-1-yl)methyl)-3-(2-chlorobenzyl)-5-(6-(4-methyl-1,4-diazepan-1-yl)-6-oxohex-1-ynyl)quinazolin-4(3H)-one] | 0.01 to 1 | − (− <30%) | − (− <30%) | – | 0.05 to 1 | –
Nc1ncnc2c1c(-c1cccc(O)c1)nn2Cc1nc2cccc(C#CCCCC(=O)Nc3ccncc3)c2c(=O)n1Cc1ccccc1Cl [Example 80, 6-(2-((4-Amino-3-(3-hydroxyphenyl)-1H-pyrazolo[3,4-d]pyrimidin-1-yl)methyl)-3-(2-chlorobenzyl)-4-oxo-3,4-dihydroquinazolin-5-yl)-N-(pyridin-4-yl)hex-5-ynamide] | 0.01 to 1 | − (− <30%) | − (− <30%) | – | < 0.05 | –
CN1CCN(CCNC(=O)CCCC#Cc2cccc3nc(Cn4nc(-c5ccc(O)cc5)c5c(N)ncnc54)n(Cc4ccccc4Cl)c(=O)c23)CC1 [Example 84, 6-(2-((4-Amino-3-(4-hydroxyphenyl)-1H-pyrazolo[3,4-d]pyrimidin-1-yl)methyl)-3-(2-chlorobenzyl)-4-oxo-3,4-dihydroquinazolin-5-yl)-N-(2-(4-methylpiperazin-1-yl)ethyl)hex-5-ynamide] | < 0.01 | − (− <30%) | − (− <30%) | – | < 0.05 | –
CC(=O)NCC(=O)NCC#Cc1cccc2nc(Cn3nc(-c4cccc(O)c4)c4c(N)ncnc43)n(Cc3ccccc3Cl)c(=O)c12 [Example 61, 2-Acetamido-N-(3-(2-((4-amino-3-(3-hydroxyphenyl)-1H-pyrazolo[3,4-d]pyrimidin-1-yl)methyl)-3-(2-chlorobenzyl)-4-oxo-3,4-dihydroquinazolin-5-yl)prop-2-yn-1-yl)acetamide] | < 0.01 | − (− <30%) | − (− <30%) | – | – | –
CN1CCN(CCN(C)C(=O)CCCC#Cc2cccc3nc(Cn4nc(-c5ccc(O)cc5)c5c(N)ncnc54)n(Cc4ccccc4Cl)c(=O)c23)CC1 [Example 85, 6-(2-((4-Amino-3-(4-hydroxyphenyl)-1H-pyrazolo[3,4-d]pyrimidin-1-yl)methyl)-3-(2-chlorobenzyl)-4-oxo-3,4-dihydroquinazolin-5-yl)-N-methyl-N-(2-(4-methylpiperazin-1-yl)ethyl)hex-5-ynamide] | < 0.01 | − (− <30%) | − (− <30%) | – | < 0.05 | –
Nc1ncnc2c1c(-c1ccc(O)cc1)nn2Cc1nc2cccc(C#CCCCC(=O)NC3CCCC3)c2c(=O)n1Cc1ccccc1Cl [Example 74, 6-(2-((4-Amino-3-(4-hydroxyphenyl)-1H-pyrazolo[3,4-d]pyrimidin-1-yl)methyl)-3-(2-chlorobenzyl)-4-oxo-3,4-dihydroquinazolin-5-yl)-N-cyclopentylhex-5-ynamide] | – | − (− <30%) | − (− <30%) | – | < 0.05 | –
